Measurements: US11020398B2, “Amino-pyrrolopyrimidinone compounds and methods of use thereof” (ArQule, Inc., priority 2016, dated 2021)

How the values were obtained:
[1] = molecular target: full-length activated BTK (wildtype) (Homo sapiens (Human), UniProt Q06187); experiment: AlphaScreen assay, wild-type BTK; type: biochemical; details: for inhibition at 10 µM: read-out: BTK % @ 10 uM, @ 10 uM
[2] = molecular target: full-length activated BTK mutant C481S (Homo sapiens (Human), UniProt Q06187, C481S); experiment: AlphaScreen assay, BTK mutant C481S; type: biochemical; details: for inhibition at 10 µM: read-out: BTK-C481S % @ 10 uM, @ 10 uM
Sequence of full-length activated BTK mutant C481S (Q06187 whole entry C481S): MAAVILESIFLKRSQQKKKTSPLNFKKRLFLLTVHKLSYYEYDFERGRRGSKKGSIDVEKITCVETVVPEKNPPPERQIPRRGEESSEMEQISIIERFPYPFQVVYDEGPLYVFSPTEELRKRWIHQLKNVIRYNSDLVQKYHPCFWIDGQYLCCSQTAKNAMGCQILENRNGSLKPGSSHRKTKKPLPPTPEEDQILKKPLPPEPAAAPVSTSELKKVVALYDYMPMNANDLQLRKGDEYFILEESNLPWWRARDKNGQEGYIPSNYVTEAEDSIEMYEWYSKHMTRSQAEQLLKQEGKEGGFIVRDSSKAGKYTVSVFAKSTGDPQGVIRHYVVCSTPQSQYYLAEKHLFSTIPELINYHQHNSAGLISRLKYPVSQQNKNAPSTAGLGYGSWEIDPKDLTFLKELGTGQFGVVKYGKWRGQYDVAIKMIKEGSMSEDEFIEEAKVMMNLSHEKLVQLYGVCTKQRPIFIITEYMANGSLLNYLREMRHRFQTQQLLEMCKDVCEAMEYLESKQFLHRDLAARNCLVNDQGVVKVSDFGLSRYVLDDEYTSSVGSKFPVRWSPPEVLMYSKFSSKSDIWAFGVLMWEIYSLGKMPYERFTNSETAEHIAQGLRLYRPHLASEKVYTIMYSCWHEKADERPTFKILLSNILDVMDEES

Sequence of full-length activated BTK (wildtype) (Q06187 whole entry): as the sequence (Q06187 whole entry C481S) above, with S481C counted along it

inhibition at 10 µM [1]	inhibition at 10 µM [2]	IC50 [1]	IC50 [2]	SMILES
63%	54%			Cn1cc(NC(=O)c2cccc(C(=O)c3c[nH]c4ncnc(N[C@@H]5CC[C@@H](CO)OC5)c34)c2)cn1 [Compound I-638, 3-(4-(((3R,6S)-6-(hydroxymethyl)tetrahydro-2H-pyran-3-yl)amino)-7H-pyrrolo[2,3-d]pyrimidine-5-carbonyl)-N-(1-methyl-1H-pyrazol-4-yl)benzamide]
		14.2 nM	25.6 nM	O=C(Cc1ccccc1)Nc1ccc(C(=O)c2c[nH]c3ncnc(N[C@@H]4CC[C@@H](CO)OC4)c23)c(Cl)c1 [Compound I-639, N-(3-chloro-4-(4-(((3R,6S)-6-(hydroxymethyl)tetrahydro-2H-pyran-3-yl)amino)-7H-pyrrolo[2,3-d]pyrimidine-5-carbonyl)phenyl)-2-phenylacetamide]
		69.5 nM	203 nM	O=C(c1ccc(NC(=O)C2(c3ccccc3)CC2)cc1Cl)c1c[nH]c2ncnc(N[C@@H]3CC[C@@H](CO)OC3)c12 [Compound I-640, N-(3-chloro-4-(4-(((3R,6S)-6-(hydroxymethyl)tetrahydro-2H-pyran-3-yl)amino)-7H-pyrrolo[2,3-d]pyrimidine-5-carbonyl)phenyl)-1-phenylcyclopropane-1-carboxamide]
		8.28 nM	32.6 nM	O=C(COCc1ccccc1)Nc1ccc(C(=O)c2c[nH]c3ncnc(N[C@@H]4CC[C@@H](CO)OC4)c23)c(Cl)c1 [Compound I-641, 2-(benzyloxy)-N-(3-chloro-4-(4-(((3R,6S)-6-(hydroxymethyl)tetrahydro-2H-pyran-3-yl)amino)-7H-pyrrolo[2,3-d]pyrimidine-5-carbonyl)phenyl) acetamide]
		251 nM	203 nM	O=C(Nc1cccc(C(=O)c2c[nH]c3ncnc(N[C@@H]4CC[C@@H](CO)OC4)c23)c1)c1ccccc1 [Compound I-642, N-(3-(4-(((3R,6S)-6-(hydroxymethyl)tetrahydro-2H-pyran-3-yl)amino)-7H-pyrrolo[2,3-d]pyrimidine-5-carbonyl)phenyl)benzamide]
		269 nM	150 nM	O=C(Nc1cccc(C(=O)c2c[nH]c3ncnc(N[C@@H]4CC[C@@H](CO)OC4)c23)c1)c1ccccn1 [Compound I-643, N-(3-(4-(((3R,6S)-6-(hydroxymethyl)tetrahydro-2H-pyran-3-yl)amino)-7H-pyrrolo[2,3-d]pyrimidine-5-carbonyl)phenyl)picolinamide]
58%	44%			O=C(c1cccc(NC(=O)C2CCOCC2)c1)c1c[nH]c2ncnc(N[C@@H]3CC[C@@H](CO)OC3)c12 [Compound I-644, N-(3-(4-(((3R,6S)-6-(hydroxymethyl)tetrahydro-2H-pyran-3-yl)amino)-7H-pyrrolo[2,3-d]pyrimidine-5-carbonyl)phenyl)tetrahydro-2H-pyran-4-carboxamide]
	81%	743 nM		COCC(=O)Nc1cccc(C(=O)c2c[nH]c3ncnc(N[C@@H]4CC[C@@H](CO)OC4)c23)c1 [Compound I-645, N-(3-(4-(((3R,6S)-6-(hydroxymethyl)tetrahydro-2H-pyran-3-yl)amino)-7H-pyrrolo[2,3-d]pyrimidine-5-carbonyl)phenyl)-2-methoxyacetamide]
		380 nM	781 nM	O=C(c1ccc(N2CCCCC2)cc1Cl)c1c[nH]c2ncnc(N[C@@H]3CC[C@@H](CO)OC3)c12 [Compound I-646, (2-chloro-4-(piperidin-1-yl)phenyl)(4-(((3R,6S)-6-(hydroxymethyl)tetrahydro-2H-pyran-3-yl)amino)-7H-pyrrolo[2,3-d]pyrimidin-5-yl)methanone]
		1440 nM	108 nM	O=C(c1ccc(N2CC3(COC3)C2)cc1Cl)c1c[nH]c2ncnc(N[C@@H]3CC[C@@H](CO)OC3)c12 [Compound I-647, (2-chloro-4-(2-oxa-6-azaspiro[3.3]heptan-6-yl)phenyl)(4-(((3R,6S)-6-(hydroxymethyl)tetrahydro-2H-pyran-3-yl)amino)-7H-pyrrolo[2,3-d]pyrimidin-5-yl)methanone]
		731 nM	810 nM	COCCOc1ccc(Cl)c(C(=O)c2c[nH]c3ncnc(N[C@@H]4CC[C@@H](CO)OC4)c23)c1 [Compound I-648, (2-chloro-5-(2-methoxyethoxy)phenyl)(4-(((3R,6S)-6-(hydroxymethyl)tetrahydro-2H-pyran-3-yl)amino)-7H-pyrrolo[2,3-d]pyrimidin-5-yl)methanone]
	82%	959 nM		COCCOc1cccc(C(=O)c2c[nH]c3ncnc(N[C@@H]4CC[C@@H](CO)OC4)c23)c1 [Compound I-649, (4-(((3R,6S)-6-(hydroxymethyl)tetrahydro-2H-pyran-3-yl)amino)-7H-pyrrolo[2,3-d]pyrimidin-5-yl)(3-(2-methoxyethoxy)phenyl)methanone]
		202 nM	326 nM	O=C(c1ccc(Nc2ccccc2)cc1Cl)c1c[nH]c2ncnc(N[C@@H]3CC[C@@H](CO)OC3)c12 [Compound I-650, (2-Chloro-4-(phenylamino)phenyl)(4-(((3R,6S)-6-(hydroxymethyl)tetrahydro-2H-pyran-3-yl)amino)-7H-pyrrolo[2,3-d]pyrimidin-5-yl)methanone]
		332 nM	230 nM	CNC(=O)c1ccc(Oc2ccc(C(=O)c3c[nH]c4ncnc(N[C@@H]5CC[C@@H](CO)OC5)c34)c(Cl)c2)cn1 [Compound I-651, 5-(3-chloro-4-(4-(((3R,6S)-6-(hydroxymethyl)tetrahydro-2H-pyran-3-yl)amino)-7H-pyrrolo[2,3-d]pyrimidine-5-carbonyl)phenoxy)-N-methyl picolinamide]
		177 nM	497 nM	COc1ccccc1C(=O)NCc1ccc(C(=O)c2c[nH]c3ncnc(N[C@@H]4CC[C@@H](CO)OC4)c23)cc1 [Compound I-652, N-(4-(4-(((3R,6S)-6-(hydroxymethyl)tetrahydro-2H-pyran-3-yl)amino)-7H-pyrrolo[2,3-d]pyrimidine-5-carbonyl)benzyl)-2-methoxybenzamide]
		44.5 nM	52 nM	CC(=O)N1C[C@H](Nc2ncnc3[nH]cc(C(=O)c4ccc(Oc5ccccc5)cc4Cl)c23)C[C@H]1CO [Compound I-655, 1-((2S,4R)-4-((5-(2-chloro-4-phenoxybenzoyl)-7H-pyrrolo[2,3-d]pyrimidin-4-yl)amino)-2-(hydroxymethyl)pyrrolidin-1-yl)ethan-1-one]
		123 nM	254 nM	CS(=O)(=O)N1C[C@H](Nc2ncnc3[nH]cc(C(=O)c4ccc(Oc5ccccc5)cc4Cl)c23)C[C@H]1CO [Compound I-656, (2-chloro-4-phenoxyphenyl)(4-(((3R,5S)-5-(hydroxymethyl)-1-(methylsulfonyl)pyrrolidin-3-yl)amino)-7H-pyrrolo[2,3-d]pyrimidin-5-yl)methanone]
		236 nM	832 nM	O=C(c1ccc(Oc2ccccc2)cc1Cl)c1c[nH]c2ncnc(NC[C@@H]3C[C@@H](CO)N(Cc4ccccc4)C3)c12 [Compound I-657, (4-((((3S,5S)-1-benzyl-5-(hydroxymethyl)pyrrolidin-3-yl)methyl)amino)-7H-pyrrolo[2,3-d]pyrimidin-5-yl)(2-chloro-4-phenoxyphenyl)methanone]
